According to US5869464A, “2'-Deoxy-5-fluorouridine derivatives, a process for their preparation, antitumor agents containing same and methods for using said agents” (Taiho Pharmaceutical Co. Ltd., priority 1993, dated 1999):
Like-named read-outs stand apart in the source and are kept apart here.

How the values were obtained:
[1] = Inhibition of body weight gain in Yoshida sarcoma-bearing rats (Pharmacological Test Example 1); design: species or system rat (male Donryu/CRJ strain); settings: rat, in vivo
Yoshida sarcoma cells [2] = assay: Antitumor effect on subcutaneously transplanted Yoshida sarcoma (Pharmacological Test Example 1); type: in vivo, rat (male Donryu/CRJ strain); settings: oral; for ED50: Rattus norvegicus, YOSHIDA, once a day for 7 consecutive days from 24 h after transplantation, 8th day, read-out: ED50 (effective dose for achieving 50% inhibition of tumor growth); for T.I. (therapeutic index = BWC50/ED50): once a day for 7 consecutive days
Procedure: The compounds of the present invention were tested for antitumor effect.
Rat-transplantable tumor, Yoshida sarcoma cells (2×10^4) were subcutaneously transplanted in the back of male Donryu/CRJ strain rats (weighing 150 to 165 g). The test compounds were suspended in a 0.5% aqueous solution of hydroxypropylmethyl cellulose. Twenty-four hours after the transplantation, each suspension was orally administered to rats (7 rats in each group) in an amount of 1.0 ml per 100 g of rats' body weight once a day for 7 consecutive days. Only a solution of hydroxypropylmethyl cellulose containing no test compound was orally administered to the control group in an amount of 1.0 ml/100 g rats' body weight once a day for 7 consecutive days starting 24 hours after the transplantation.
The rats were sacrificed on the 8th day after the transplantation and their tumors were extirpated. The tumors were weighed to calculate an average tumor weight at each dose. The results were compared between the treated group and the control group. An effective dose (ED50) for achieving 50% inhibition of tumor growth was determined from the dose-tumor reduction curve. A dose of 50% inhibition of body weight gain (BWC50)was determined from the dose-body weight change curve. The therapeutic index (T.I.=BWC50 /ED50) was also determined.

[3] = system: human stomach cancer strain, H-81; assay: Tumor growth inhibition, nude rat-transplantable human stomach cancer strain H-81 (Pharmacological Test Example 2(b)); type: in vivo, human tumor in male F344/N Jcl-rnu nude rat; settings: once a day for 14 consecutive days
Excerpt: (§1) (a) A tumor piece (about 2 mm^3) of nude rat-transplantable human kidney cancer strain, JRC-11, was subcutaneously transplanted in the armpit of each male F344/N Jcl-rnu nude rat. The treatment of rats (7 rats in each group) started when the rats' tumors grew to an estimated volume of 250 mm^3 as calculated by an equation
wherein L is the length of the tumor and W is the width of the tumor, each being measured by calipers. The treated group (rats to be treated with the test compounds) and the control group were tested under equal conditions concerning the mean value of tumor volume and standard deviation. The test compounds were suspended in a 0.5% aqueous solution of hydroxypropylmethyl cellulose. […]
(§2) A ratio of tumor growth of each rat was calculated from two tumor volumes on the first day of administration and on the day following the last administration. A mean ratio of tumor growth of the group (T) or the control group (C) was calculated from said ratio. Then, a tumor growth inhibition ratio (%) was calculated by the following equation: […]
(b) The same experiment as in (a) was conducted except that a nude rat-transplantable human stomach cancer strain, H-81, was used in place of the nude rat-transplantable human kidney cancer strain, JRC-11. A tumor growth inhibition ratio was calculated.

[4] = system: human kidney cancer strain, JRC-11; assay: Tumor growth inhibition, nude rat-transplantable human kidney cancer strain JRC-11 (Pharmacological Test Example 2(a)); type: in vivo, human tumor in male F344/N Jcl-rnu nude rat; settings: once a day for 14 consecutive days
Excerpt: as §1
wherein L is the length of the tumor and W is the width of the tumor, each being measured by calipers. The treated group (rats to be treated with the test compounds) and the control group were tested under equal conditions concerning the mean value of tumor volume and standard deviation. The test compounds were suspended in a 0.5% aqueous solution of hydroxypropylmethyl cellulose. Each suspension was orally administered to rats in an amount of 1.0 ml per 100 g of rats' body weight once a day for 14 consecutive days. Only a solution of hydroxypropylmethyl cellulose containing no test compound was orally administered to the control group in an amount of 1.0 ml per 100 g rats' body weight once a day for 14 consecutive days.
as §2

tumor cells = settings: in vitro tests; cited from earlier work
Yoshida sarcoma cells [5] = assay: Antitumor effect on subcutaneously transplanted Yoshida sarcoma (Pharmacological Test Example 1); type: in vivo, rat (male Donryu/CRJ strain); settings: for ED50: Rattus norvegicus, YOSHIDA, iv, read-out: ED50 (effective dose for achieving 50% inhibition of tumor growth)
[6] = under the influence of pyrimidine nucleoside phosphorylase; cited from earlier work
[7] = CVI: continuous intravenous drip injection

Compound	TD50 ([1]; po) [mg/kg]	ED50 (Yoshida sarcoma cells [2]) [mg/kg]	T.I. (therapeutic index = BWC50/ED50) (Yoshida sarcoma cells [2])	also measured
O=c1[nH]c(=O)n([C@H]2C[C@H](OCc3ccc(Cl)cc3F)[C@@H](CO)O2)cc1F [Comparative Compound 1, 3'-O-(4-chloro-2-fluorobenzyl)-2'-deoxy-5-fluorouridine]	8.5	7.5	1.1	
CCCOc1nc(=O)n([C@H]2C[C@H](O)[C@@H](CO)O2)cc1F [Comparative Compound 2, 2'-deoxy-4-O-n-propyl-5-fluorouridine]	37	34	1.1	
CCCCC(=O)OC[C@H]1O[C@@H](n2cc(F)c(OCc3ccc(F)cc3)nc2=O)C[C@@H]1OC(=O)CCCC [Comparative Compound 3, 2'-deoxy-4-O-(4-fluorobenzyl)-3',5'-di-O-n-pentanoyl-5-fluorouridine]	40	> 40	< 1.0	
CCCOc1nc(=O)n([C@H]2C[C@H](OCc3ccc(Cl)cc3F)[C@@H](CO)O2)cc1F [Compound 3]	14	4	3.5	
CCCOc1nc(=O)n([C@H]2C[C@H](OCc3ccc(F)cc3F)[C@@H](CO)O2)cc1F [Compound 7]	18	7.5	2.4	
CCCOc1nc(=O)n([C@H]2C[C@H](OCc3ccc(Cl)cc3Cl)[C@@H](CO)O2)cc1F [Compound 12]	16	3	5.3	
CCOc1nc(=O)n([C@H]2C[C@H](OCc3ccc(Cl)cc3F)[C@@H](CO)O2)cc1F [Compound 13, 3'-O-(4-chloro-2-fluorobenzyl)-2'-deoxy-4-O-ethyl-5-fluorouridine]				Inhibition ratio (%) (tumor growth) ([3]; 3.75 mg/kg oral): 74%; Inhibition ratio (%) (tumor growth) ([3]; 7.5 mg/kg oral): 79%; Inhibition ratio (%) (tumor growth) ([4]; 3.75 mg/kg oral): 67%; Inhibition ratio (%) (tumor growth) ([4]; 7.5 mg/kg oral): 73%
O=c1[nH]c(=O)n([C@H]2C[C@H](O)[C@@H](CO)O2)cc1F [FdUrd, 2'-deoxy-5-fluorouridine]				inhibition of the growth of tumor cells (tumor cells): significantly inhibits the growth of tumor cells; T.I. (therapeutic index = BWC50/ED50) (Yoshida sarcoma cells [5]; [7]): 0.88; ED50 (Yoshida sarcoma cells [5]; [7]): 0.8 mg/kg; ED50 (Yoshida sarcoma cells [5]; iv: intravenous injection): 44 mg/kg; T.I. (therapeutic index = BWC50/ED50) (Yoshida sarcoma cells [5]; iv: intravenous injection): 1.36; TD50 ([1]; iv, CVI: continuous intravenous drip injection, read-out: BWC50 (dose of 50% inhibition of body weight gain)): 0.7 mg/kg; TD50 ([1]; iv, iv: intravenous injection, read-out: BWC50 (dose of 50% inhibition of body weight gain)): 60 mg/kg; therapeutic effect in vivo [6]: can not produce a satisfactory therapeutic effect
